Source: patent US7704525B2, “Lipid microparticles by cryogenic micronization” (Ares Trading S.A., priority 2000, dated 2010)

Assay: Partition coefficient octanol/water of Antide
Type: physicochemical
Settings: 24 hours stirring at room temperature, RP-HPLC
Method: Partition coefficient: it was determined using octanol as organic phase and water as hydrophilic phase. The two phases were first saturated with each other for 24 hours at room temperature. Antide was then dissolved in the water phase at a concentration well below saturation. An equal volume of organic phase was subsequently added to the water phase and the mixture was kept under stirring for 24 hours at room temperature. Antide concentration in the two phases was determined by RP-HPLC and the partition coefficient was obtained from the ratio between the drug concentration in organic and water phase.
The resulting octanol/water coefficient was 8.56·10^−2

- octanol/water coefficient: 8.56·10^−2
Substance: N—Ac-D-2-NaI, D-pCiPhe, D-3-Pal, Ser, NicLys, D-NicLys, Leu, Ilys, Pro, D-Ala, NH2 [Antide]
